Data from patent EP3833345B1, “SMALL MOLECULE-INHIBITORS OF 6-PHOSPHOFRUCTO-1-KINASE FOR REDUCING LACTATE GENERATION BY CANCER CELLS” (Kemijski Institut, priority 2018, dated 2020).

Assays:
Format in all cases: cell-based
Caco-2 cells [1] = assay: cytotoxicity in Caco-2 cells (lactate dehydrogenase (LDH) kit)
Method: (§1) Lactate generation, growth yield and survival under normal and inhibitory conditions of three different tumorigenic cells lines were determined in more detailed measurements. […] Cytotoxicity was measured by the Lactate dehydrogenase (LDH) kit (Roche).

Caco-2 cells [2] = assay: total cell numbers of Caco-2 cells at end of incubation; settings: single addition, end of incubation (92 hours)
Method: as §1

COLO 829 cells [3] = assay: cytotoxicity in COLO 829 cells (LDH kit)
Method: as §1

MDA-MB-231 cells [4] = assay: cytotoxicity in MDA-MB-231 cells (LDH kit)
Method: as §1
Inhibitors No. 23, 29, 30 and 31 were tested for preventing lactate generation by the MDA-MB-231 cells.

Caco-2 cells [5] = assay: lactate excretion by Caco-2 cells; settings: single addition, different concentrations (20-80 µM)
Method: Preliminary in vivo tests were run by measuring lactate production by three different tumorigenic cell lines. […] For the experiment, the following tumorigenic cells lines originating from different tumours were tested: Caco-2 cells (Figure 10a), originating from colorectal adenoma carcinoma; COLO 829 cells (Figure 10b), isolated from melanoma; and MDA-MB-231 cells (Figure 10c) derived from metastatic phase of mammary/breast cancer.
as §1
Therefore, the influence of selected inhibitors was assessed by sequential re-insertion of low concentrations of inhibitors at indicated time points. The inhibitors were first added to the medium 8 hours after the inoculation followed by periodically additions at 24-hour intervals (marked by arrows).

COLO 829 cells [6] = assay: lactate excretion by COLO 829 cells
Method: (§2) Preliminary in vivo tests were run by measuring lactate production by three different tumorigenic cell lines. Again, 100 µM concentrations of tested compounds have been added to the medium. For the experiment, the following tumorigenic cells lines originating from different tumours were tested: Caco-2 cells (Figure 10a), originating from colorectal adenoma carcinoma; COLO 829 cells (Figure 10b), isolated from melanoma; and MDA-MB-231 cells (Figure 10c) derived from metastatic phase of mammary/breast cancer. All adherent cell lines were grown in the RPMI 1640 GlutaMAX substrate (Thermo Fisher) supplemented with 10% FBS.
On the basis of preliminary results, inhibitors No. 23, 29, 30 and 31 were tested on COLO 829 cells. […] No significant discrepancies of total cell numbers in respect to the control were observed due to the different concentrations of inhibitors in the medium (Figure 13e). The average percent of dead COLO 829 cells in the control and in the presence of different concentrations of inhibitors were as follows: inh. 23 (9,23±0,6%), inh. 29 (9,31±0,73%), inh. 30 (8,27±0,49%), inh. 31 (8,26±0,38%). Additionally, cytotoxicity of inh. 3 (5,01±1,08%) and 9 (3,65±0,78%) for COLO 829 cells were also determined. No dose dependent decrease of survival was observed by any inhibitor.
(§3) A decrease in inhibitory effectiveness of some compounds was observed after certain period of time (Example 11). […] Therefore, the influence of selected inhibitors was assessed by sequential re-insertion of low concentrations of inhibitors at indicated time points. The inhibitors were first added to the medium 8 hours after the inoculation followed by periodically additions at 24-hour intervals (marked by arrows).
No significant cytostatic (Figure 16f) of cytotoxic effect of inhibitors could be detected after 92 hours of incubation despite of sequential addition of various concentrations of inhibitors. The following average percentages of dead cells were perceived in the medium without and media with inh. 3 (1,95±0,15%) inh. 9 (1,70±0,14%), inh. 23 (2,40±0,09%), inh. 29 (1,66±0,25%) and inh. 30 (1,38±0,18%). No detrimental effects of increased inhibitors concentrations on cell deaths have been observed.

MDA-MB-231 cells [7] = assay: total cell numbers of MDA-MB-231 cells at end of incubation; settings: single addition, different concentrations
Method: (§4) Inhibitors No. 23, 29, 30 and 31 were tested for preventing lactate generation by the MDA-MB-231 cells. […] No significant discrepancies of total cell numbers were observed (Figure 14e) due to the different concentrations of inhibitors in the medium. […] The average percent of dead MDA-MB-231 cells in the control and in the presence of different concentrations of inhibitors were as follows: inh. 23 (2,98±0,2%), inh. 29 (3,37±0,39%), inh. 30 (3,4±0,21%), inh. 31 (6,87±0,44%). Additionally, cytotoxicity of inh. 3 (7,2±0,47%) and 9 (6,59±0,29%) for MDA-MB-231 cells were also determined. No dose dependent decrease of survival was observed by any inhibitor.
(§5) In MDA-MB-231 calls similar results to those found in Caco-2 cells were observed. […] No significant cytostatic (Figure 17f) or cytotoxic effect of inhibitors could be detected after 92 hours of incubation despite of sequential addition of various concentrations of inhibitors. The following average percentages of dead cells were perceived in the medium without and with inh. 3 (2,05±0,18%), inh. 9 (1,85±0,05%), inh. 23 (2,20±0,15%), inh. 29 (1,54±0,16%) and inh. 30 (2,00±0,18%). No detrimental effects of increased inhibitors concentrations on cell deaths have been observed.

MDA-MB-231 cells [8] = assay: lactate excretion by MDA-MB-231 cells; settings: single addition, different concentrations
Method: as §2, §4, §3, §5

[9] = sequential addition at 24-hour intervals, 92 hours, average over medium without and with inhibitor
[10] = single addition, average over control and different concentrations of inhibitor

With `O=C(CCS(=O)(=O)c1ccc(Cl)cc1)Nc1nnc(-c2ccno2)o1` [Inhibitor No. 29, 3-(4-chlorophenyl)sulfonyl-N-(5-isoxazol-5-yl-1,3,4-oxadiazol-2-yl)propanamide] the “average percentages of dead cells, Caco-2, sequential re-insertion” value (Caco-2 cells [1]; [9]) was 4,57±0,04%, the “average percent of dead cells, Caco-2” value (Caco-2 cells [1]; [10]) was 4,95±0,27% and the “total cell numbers, Caco-2” value (Caco-2 cells [2]) was “minor dose dependent reductions in total cell numbers”. The “average percentages of dead cells, COLO 829, sequential re-insertion” value (COLO 829 cells [3]; [9]) was 1,66±0,25%, the “average percent of dead COLO 829 cells” value (COLO 829 cells [3]; [10]) was 9,31±0,73% and the “average percentages of dead cells, MDA-MB-231, sequential re-insertion” value (MDA-MB-231 cells [4]; [9]) was 1,54±0,16%. For the same compound, the “average percent of dead MDA-MB-231 cells” value (MDA-MB-231 cells [4]; [10]) was 3,37±0,39%, the “lactate generation by Caco-2 cells” value (Caco-2 cells [5]) was “effectively reduced the lactate accumulation in the medium in a dose dependent manner” and the “lactate formation in COLO 829 cells, sequential re-insertion” value (COLO 829 cells [6]; inhibitor added 8 hours after inoculation, then at 24-hour intervals, low concentrations (from 10 µM)) was “slightly weaker inhibitions”. The “lactate excretion by COLO 829 cells” value (COLO 829 cells [6]; single addition, different concentrations) was “strongest reductions of lactate excretion”, the “total cell numbers, MDA-MB-231” value (MDA-MB-231 cells [7]) was “dose dependent decrease of cell numbers” and the “lactate excretion by MDA-MB-231 cells” value (MDA-MB-231 cells [8]) was “dose dependent inhibition of lactate excretion”.
